One data set has as its system HIV-1IIIB. Briefly: HIV-1 antiviral assay (CPE reduction) in CEM-SS cells. Particulars: for antiviral activity of positive control compounds: HIV-1 assay validity statement; for % CPE reduction in HIV-1 infected CEM-SS cells: test peptide 10 micrograms per ml, 6 days post-infection, MTS. It is filed as cell-based.
The subject of the next data set is CEM-SS cells. The data set can be described thus: Cytotoxicity in the HIV-1 assay (MTS cell viability). Particulars: test peptide 10 micrograms per ml.
The subject of a further data set is HCMV strain AD169. The data set can be described thus: HCMV plaque reduction assay in MRC-5 cells.
The test system of data set [1] is hepatitis B virus (HBV) ayw strain. The data set can be described thus: HBV replication assay in HepG2-2.2.15 cells (TaqMan PCR of secreted HBV DNA). It is filed as cell-based. Particulars: test peptide 10 micrograms per ml; six days; HBV DNA in supernatant.
A short description of data set [2]: Cytotoxicity in the HBV assay (dye uptake cell viability). It is filed as cell-based. The conditions noted are these: human, HepG2-2.2.15 cells, test peptide 10 micrograms per ml.
Another data set concerns Pseudomonas aeruginosa. It is filed as cell-based. Particulars: 5 micrograms per ml.
For the next data set, the system named is Streptococcus pneumoniae. The format is cell-based. Particulars: 5 micrograms per ml.
Data set [3] concerns A549 cells. Briefly: Propidium iodide cell cycle assay. The format is cell-based, human. Particulars: 10 micrograms per ml, 24 hours, propidium iodide FACS.
Protocol: Human A549 cells (carcinomic human alveolar basal epithelial cells) were utilized in the experiments employing the Propidium iodide cell cycle assay. […] Propidium iodide is an intercalating agent and a fluorescent molecule that can be used to stain DNA. […] Thereafter, cells were pelleted at 1500 rpm for 5 min and resuspended in Propidium iodide solution in PBS. After incubation for 40 min at 37° C., cells were analyzed in the FACS.
The test system of data set [4] is Human Peripheral Blood Mononuclear Cells (PBMC). The data set can be described thus: B cell proliferation assay (SAC plus Interleukin-2 stimulated PBMC, 3H-thymidine). It is filed as cell-based. The conditions noted are these: 10 micrograms per ml, 3 days plus 12 hours 3H-thymidine.
The next data set has as its system RAW 264.7 cells. Briefly: Phagocytosis assay (Fluorescein-labeled Escherichia coli, flow cytometry). It is filed as cell-based, mouse. Particulars: 10 micrograms per ml, 30 min preincubation, 60 min ingestion. For orientation: In flow cytometry, cells or beads pass a laser one at a time.
Data set [5] relates to A549 cells. The data set can be described thus: Apoptosis induction assay (Annexin-5). Particulars: 10 micrograms per ml, 24 hours. The format is cell-based, human.
Description: Human A549 cells (carcinomic human alveolar basal epithelial cells) were utilized in the experiments employing the Annexin-5 apoptosis assay.
The test system of data set [6] is A549 cells. Briefly: Apoptosis prevention assay (C2 ceramide, Annexin-5). It is filed as cell-based, human. Particulars: 10 micrograms per ml, 30 min pretreatment, then C2 ceramide.
For the next data set, the system named is spleen cells. Briefly: Th1/Th2 cytokine profiling assay (Ovalbumin-restimulated spleen cells, CBA kit). The conditions noted are these: 10 micrograms per ml; Ovalbumin restimulation; 72 hours. The format is cell-based, Balb/c mice.
The test system of data set [7] is macrophages prepared from PBMC. Briefly: TNF alpha production assay (LPS-stimulated macrophages, ELISA). The format is cell-based, human. The conditions noted are these: 10 micrograms per ml, lipopolysaccharide 200 ng/ml, overnight. The text has this:
Not stimulated macrophages served as negative background control.
(In general: ELISA stands for enzyme-linked immunosorbent assay.)

Data set [8] has as its system Primary Human endothelial cells (HUVEC). The data set can be described thus: Endothelial cell migration assay. The format is cell-based. Particulars: 10 micrograms per ml, 22 hours.
In another data set the test system is HUVEC. Briefly: Endothelial tube formation assay. Particulars: 10 micrograms per ml, 20 hours. The format is cell-based, human. The text has this:
Positive control was vehicle only.

A further data set has as its system MRSA. The conditions noted are these: 5 micrograms per ml.
The nature of data set [9]: in vitro. Particulars: human, CEM-SS cells.
Data set [10] can be described thus: in vitro. Particulars: human, MRC-5 cells (embryonal lung fibroblasts).
Data set [11] has as its system Human Peripheral Blood Mononuclear Cells (PBMC). Briefly: T cell proliferation assay (PHA-stimulated PBMC, 3H-thymidine). Particulars: 10 micrograms per ml, 3 days plus 12 hours 3H-thymidine.

As to `Cc1cn([C@H]2C[C@H](N=[N+]=[N-])[C@@H](CO)O2)c(=O)[nH]c1=O` [AZT], in the data set on HIV-1IIIB, the “antiviral activity of positive control compounds” value is recorded as “expected levels of antiviral activity” and the “% CPE reduction in HIV-1 infected CEM-SS cells” value came to 99%. In addition, the “% Cell viability” value in the data set on CEM-SS cells turned out to be 97%.
On to `Nc1nc(O)c2ncn(COC(CO)CO)c2n1` [Ganciclovir, reference compound], for which the “antiviral activity of positive control compound” value in the data set with HCMV strain AD169 (HCMV assay validity statement) is recorded as “expected levels of antiviral activity”.
For `CC(C)(C)NC(=O)[C@@H]1CN(Cc2cccnc2)CCN1C[C@@H](O)C[C@@H](Cc1ccccc1)C(=O)N[C@H]1c2ccccc2C[C@H]1O` [Indinavir, indinavir], the “antiviral activity of positive control compounds” value with HIV-1IIIB is “expected levels of antiviral activity”.
A word on the viability: it is the share of living cells, or the viability signal relative to a control. As a reminder, the % inhibition is the relative decrease from the control value, in per cent. Consider “Ac-HWAVGHL-NH2 [Acetyl-GRP (20-26), Ac-His-Trp-Ala-Val-Gly-His-Leu-NH2]”, for which, in the data set with HIV-1IIIB, the “% CPE reduction in HIV-1 infected CEM-SS cells” value amounted to 0.0%. In data set [1], the “% inhibition of HBV replication in HEP G2 cells” value was 47.8%. The molecule also registered a viability at 144 h, 10 micrograms per ml in [2] of 95.3%. In addition, the “% inhibition” value in the data set on Pseudomonas aeruginosa is given as 0.0%. For the same molecule, in the data set with Streptococcus pneumoniae, the “% inhibition” value is 0.0%. Also, in the data set on A549 cells [3], the “Cell cycle analysis G0/G1” value is 59.2, the “Cell cycle analysis G2/M” value was 9.6 and the “Cell cycle analysis S” value was 31.2. Further, the “% of SAC/IL2 induced control” value in data set [4] was 123.6%. The “% of control phagocytosis” value in the data set on RAW 264.7 cells was determined as 102.9%. For the same molecule, the “% of induction” value in the data set on A549 cells [5] is listed as 1.1%. In addition, the “% prevention of ceramide induced apoptosis” value in the data set with A549 cells [6] amounted to 0.0%. Moreover, in the data set with spleen cells, the “IFNγ spleen cells; TH1 response (% of control)” value is reported as 117.9 % of control, the “IL-2 spleen cells (% of control)” value is 202.7 % of control, the “IL-4 spleen cells; TH2 response (% of control)” value is listed as 168.7 % of control and the “IL-5 spleen cells; TH2 response (% of control)” value was 102.5 % of control. Also, the “TNF-a spleen cells; TH1 response (% of control)” value in the data set with spleen cells is reported as 145.8 % of control. Moreover, in [7], the “% of LPS induction” value is reported as 102.4%. Also, the “% inhibition of migration” value in data set [8] was 50%. Further, in the data set on HUVEC, the “% inhibition of tube formation” value was 24%. Also, in the data set on MRSA, the “% inhibition” value is 0.0%. In addition, in the data set “in vitro [9]”, the viability at 10 micrograms per ml was 100%. In addition, in the data set “in vitro [10]”, the viability at 144 h came out at 100%. The “% plaque reduction” value in the data set with HCMV strain AD169 (HCMV in MRC-5 cells, peptide 10 micrograms per ml, 7-10 days) is recorded as 3.2%. The “% of PHA induced control” value in data set [11] is 97.5%.

For the origin of these results see US20100204151A1, “USE OF A PEPTIDE AS A THERAPEUTIC AGENT” (priority 2007, published 2010).
